# From patent US20050256034A1, “Dioxolane analogs for improved inter-cellular delivery” (priority 2000, published 2005)
# Where a name gives a salt, the structure may show the parent alone.
# Test: 3H-Thymidine Incorporation Assay (24 hr drug, wash, another 48 hr; 72 hr assay)
# Format: cell-based
# Settings: CCRF-CEM, read-out: IC50 in μM (3H-TdR incorporation at 72 hr) CEM/dCK- 24 h, CEM/dCK- (CCRF-CEM deoxycytidine kinase-deficient); 24 h exposure to drug, wash, another 48 hr
row,Compound,IC50 [µM]
1,"N=C(OC[C@H]1OC[C@@H](n2ccc(N)nc2=O)O1)C(Cl)(Cl)Cl [Compound 79, 2,2,2-TRICHLORO-ACETI- MIDIC ACID 4-(4-A- MINO-2-OXO-2H-PYRI- MIDIN-1-YL)-[1,3]DI- OXOLAN-2-YL- METHYL ESTER]",63
2,"Nc1ccn([C@@H]2CO[C@H](COC(=O)CCCCCNCc3ccccc3)O2)c(=O)n1 [Compound 84, 6-Benzylamino-hexanoic acid 4-(4-amino-2-oxo-2H-pyri-midin-1-yl)-[1,3]di-oxolan-2-ylmethyl ester]",60
3,"COc1cc2c(cc1OC)C(=O)/C(=C/c1cc(C)c(OC(=O)OC[C@H]3OC[C@@H](n4ccc(N)nc4=O)O3)c(C)c1)C2 [Compound 112, CARBONIC ACID 4(S)-(4′-A- MINO-2′-OXO-2H-PYRI- MIDIN-1′-YL)-[1,3]DI- OXOLAN-2(S)-YL- METHYL ESTER 4-(5″,6″-DI- METHOXY-1″-OXO-IN- DAN-2″-YLIDENE- METHYL)-2,6-DI- METHYL-PHENYL ESTER]",0.057

# Same assay, conditions: ratio of IC50 CEM/dCK- to IC50 CCRF-CEM, 24 h exposure
row,Compound,Factor (Resistance Factor = Ratio of dCK- on Wild-type CCRF-CEM)
1,"N=C(OC[C@H]1OC[C@@H](n2ccc(N)nc2=O)O1)C(Cl)(Cl)Cl [Compound 79, 2,2,2-TRICHLORO-ACETI- MIDIC ACID 4-(4-A- MINO-2-OXO-2H-PYRI- MIDIN-1-YL)-[1,3]DI- OXOLAN-2-YL- METHYL ESTER]","4,500"
2,"COC(=O)CCCC(=O)Nc1ccn([C@@H]2CO[C@H](CO)O2)c(=O)n1 [Compound 81, 4-[1-(2-HYDROXYMETHYL-[1,3]DI- OXOLAN-4-YL)-2-OX- O-1,2-DIHYDRO-PYRI- MIDIN-4-YL- CARBAMOYL]-BUTYRIC ACID METHYL ESTER]",83
3,"Nc1ccn([C@@H]2CO[C@H](COC(=O)CCCCCNCc3ccccc3)O2)c(=O)n1 [Compound 84, 6-Benzylamino-hexanoic acid 4-(4-amino-2-oxo-2H-pyri-midin-1-yl)-[1,3]di-oxolan-2-ylmethyl ester]","5,000"
4,"Nc1ccn([C@@H]2CO[C@H](CO[C@@H]3O[C@H](CO)[C@@H](O)[C@H]3O)O2)c(=O)n1.O=C(O)C(F)(F)F [Compound 85, 4-AMINO-1-[2-(3,4-DI- HYDROXY-5-HYDROXY- METHYL-TETRA- HYDROFURAN-2-YLOXY- METHYL)-[1,3]DI- OXOLAN-4-YL]-1HPYIMI- DIN-2-ONE, TRIFLUOROACETIC ACID SALT]",38
5,"O=C(O)C(F)(F)F.O=c1nc(NC/C=C/c2ccccc2)ccn1[C@@H]1CO[C@H](CO)O1 [Compound 89, 1-(2-HYDROXYMETHYL-[1,3]DI- OXOLAN-4-YL)-4-(3-CIN- NAMYL)-1H-PYRI- MIDIN-2-ONE TRIFLUORO-ACETATE SALT]",40
6,"Nc1ccn([C@@H]2CO[C@H](COC/C=C/c3ccccc3)O2)c(=O)n1.O=C(O)C(F)(F)F [Compound 90, 4-AMINO-1-[2-(3-CIN- NAMYLOXYMETHYL)-[1,3]DI- OXOLAN-4-YL]-1H-PYRI- MIDIN-2-ONE TRIFLUOROACETATE SALT]",1.5
7,"CC(OC[C@H]1OC[C@@H](n2ccc(N)nc2=O)O1)OC1CCCCC1 (stereo partly shown) [Compound 92, 4-AMINO-1-[2-(1-CYCLO- HEXYLOXY-ETH- OXYMETHYL)-[1,3]DI- OXOLAN-4-YL]-1H-PYRI- MIDIN-2-ONE]",77
8,"CCCCC(CC)C(=O)Nc1ccn([C@@H]2CO[C@H](CO)O2)c(=O)n1 (stereo partly shown) [Compound 99, 2-ETHYL-HEXANOIC ACID [1-(2-HYDROXYMETHYL-[1,3]DI- OXOLAN-4-YL)-2-OX- O-1,2-DIHYDRO-PYRI- MIDIN-4-YL]-AMIDE]",>20
9,"O=C(Nc1ccn([C@@H]2CO[C@H](COC(=O)C34CC5CC(CC(C5)C3)C4)O2)c(=O)n1)OCc1ccccc1 [Compound 101, ADAMANTANE-1-CARBOXYLIC ACID 4-(4-BENZYL- OXYCARBONYLAMINO-2-OX- O-2H-PYRIMIDIN-1-YL)-[1,3]DI- OXOLAN-2-YLMETHYL ESTER]",44
10,"O=C(Nc1ccn([C@@H]2CO[C@H](COC(=O)C34CC5CC(CC(C5)C3)C4)O2)c(=O)n1)C12CC3CC(CC(C3)C1)C2 [Compound 102, ADAMANTANE-1-CARBOXYLIC ACID 4-{4-[(ADAMANTANE-1-CAR- BONYL)-AMINO]-2-OX- O-2H-PYRIMIDIN-1-YL}-[1,3]DI- OXOLAN-2-YLMETHYL ESTER]",27
11,"O=C(Nc1ccn([C@@H]2CO[C@H](COC(=O)Oc3ccc(Cl)cc3)O2)c(=O)n1)Oc1ccc(Cl)cc1 [Compound 103, CARBONIC ACID 4-[4-(4-CHLORO-PHENOXY- CARBONYLAMINO)-2-OX- O-2H-PYRIMIDIN-1-YL]-[1,3]DI- OXOLAN-2-YLMETHYL ESTER 4-CHLORO-PHENYL ESTER]","4,545"
12,"O=C(Nc1ccn([C@@H]2CO[C@H](CO)O2)c(=O)n1)Oc1ccc(Cl)cc1.O=C(O)C(F)(F)F [Compound 104, [1-(2-HYDROXYMETHYL-[1,3]DI- OXOLAN-4-YL)-2-OX- O-1,2-DIHYDRO-PYRI- MIDIN-4-YL]-CARBAMIC ACID 4-CHLORO-PHENYL ESTER TRIFLUOROACETATE SALT]",>476
13,"Nc1ccn([C@@H]2CO[C@H](COC(=O)Oc3ccc(Cl)cc3)O2)c(=O)n1.O=C(O)C(F)(F)F [Compound 105, CARBONIC ACID 4-(4-A- MINO-2-OXO-2H-PYRI- MIDIN-1-YL)-[1,3]DI- OXOLAN-2-YLMETHYL ESTER 4-CHLORO-PHENYL ESTER TRIFLUOROACETATE SALT]",2 393
14,"O=C(NCc1ccccc1)Nc1ccn([C@@H]2CO[C@H](CO)O2)c(=O)n1 [Compound 108, 1-BENZYL-3-[1-(2-HYDROXY- METHYL-[1,3]DI- OXOLAN-4-YL)-2-OX- O-1,2-DIHYDRO-PYRI- MIDIN-4-YL]-UREA]",>29
15,"O=C(NCc1ccccc1)Nc1ccn([C@@H]2CO[C@H](COC(=O)NCc3ccccc3)O2)c(=O)n1 [Compound 109, BENZYL-CARBAMIC ACID 4-[4-(3-BEN- ZYL-UREIDO)-2-OX- O-2#H!-PYRIMIDIN-1-YL]-[1,3]DI- OXOLAN-2-YLMETHYL ESTER]",>100
16,"Nc1ccn([C@@H]2CO[C@H](COC(=O)C34CC5CC(CC(C5)C3)C4)O2)c(=O)n1 [Compound 110, ADAMANTANE-1-CARBOXYLIC ACID 4-(4-AMINO-2-OXO-2H-PYRI- MIDIN-1-YL)-[1,3]DI- OXOLAN-2-YLMETHYL ESTER]",3 307
17,"CC(C)(C)OC(=O)N(CCCCC(=O)OC[C@H]1OC[C@@H](n2ccc(N)nc2=O)O1)Cc1ccccc1 [Compound 111, 5-(BENZYL-TERT-BUTOXY- CARBONYL-AMINO)-PENTANOIC ACID 4-(4-A- MINO-2-OXO-2H-PYRI- MIDIN-1-YL)-[1,3]DI- OXOLAN-2-YLMETHYL ESTER]",13000
18,"COc1cc2c(cc1OC)C(=O)/C(=C/c1cc(C)c(OC(=O)OC[C@H]3OC[C@@H](n4ccc(N)nc4=O)O3)c(C)c1)C2 [Compound 112, CARBONIC ACID 4(S)-(4′-A- MINO-2′-OXO-2H-PYRI- MIDIN-1′-YL)-[1,3]DI- OXOLAN-2(S)-YL- METHYL ESTER 4-(5″,6″-DI- METHOXY-1″-OXO-IN- DAN-2″-YLIDENE- METHYL)-2,6-DI- METHYL-PHENYL ESTER]",10
19,"COC1(OC[C@H]2OC[C@@H](n3ccc(N)nc3=O)O2)CCCCC1 [Compound 113, 4-AMINO-1-([2-(1-METH- OXY-CYCLO- HEXYLOXYMETHYL)-[1,3]DI- OXOLAN-4-YL]-1H-PYRI- MIDIN-2-ONE]",>1 667
20,"CC(C)(C)OC(=O)N(CCCCC(=O)Nc1ccn([C@@H]2CO[C@H](COC(=O)CCCCN(Cc3ccccc3)C(=O)OC(C)(C)C)O2)c(=O)n1)Cc1ccccc1 [Compound 114, 5-(BENZYL-TERT-BUTOXY- CARBONYL-AMINO)-PENTANOIC ACID 4-{4-[5-(BENZYL-TERT-BUTOXY- CARBONYL-AMINO)-PENTANOYL- AMINO]-2-OXO-2H!PYRI- MIDIN-1-YL)-[1,3]DI- OXOLAN-2-YLMETHYL ESTER]",500
21,"CC(C)(C)OC(=O)N(CCCCC(=O)Nc1ccn([C@@H]2CO[C@H](CO)O2)c(=O)n1)Cc1ccccc1 [Compound 115, BENZYL-{4-[1-(2-HYDROXY- METHYL-[1,3]DI- OXOLAN-4-YL)-2-OX- O-1,2-DIHYDRO-PYRI- MIDIN-4-YLCARBA- MOYL]-BUTYL}-CARBAMIC ACID TERT!-BUTYL ESTER]",>500
22,"COc1ccc(OC(=O)OC[C@H]2OC[C@@H](n3ccc(N)nc3=O)O2)cc1 [Compound 118, CARBONIC ACID 4-(4-A- MINO-2-OXO-2H-PYRI- MIDIN-1-YL)-[1,3]DI- OXOLAN-2-YLMETHYL ESTER 4-METHOXY-PHENYL ESTER]",>3 571
23,"CCCCCCNC(=O)Nc1ccn([C@@H]2CO[C@H](COC(=O)NCCCCCC)O2)c(=O)n1 [Compound 119, HEXYL-CARBAMIC ACID 4-[4-(3-HEX- YL-UREIDO)-2-OX- O-2#H!-PYRIMIDIN-1-YL]-[1,3]DI- OXOLAN-2-YLMETHYL ESTER]",˜2
24,"CCCCCCNC(=O)Nc1ccn([C@@H]2CO[C@H](CO)O2)c(=O)n1 [Compound 120, 1-HEXYL-3-[1-(2-HY- DROXYMETHYL-[1,3]DI- OXOLAN-4-YL)-2-OX- O-1,2-DIHYDRO-PYRI- MIDIN-4-YL]-UREA]",1
25,"CCCCCCNC(=O)OC[C@H]1OC[C@@H](n2ccc(N)nc2=O)O1 [Compound 121, HEXYL-CARBAMIC ACID 4-(4-A- MINO-2-OXO-2H-PYRI- MIDIN-1-YL)-[1,3]DI- OXOLAN-2-YLMETHYL ESTER]",>6
26,"CCCCCCOC(=O)OC[C@H]1OC[C@@H](n2ccc(NC(=O)OCc3ccccc3)nc2=O)O1 [Compound 122, CARBONIC ACID 4-(4-BENZYLOXY- CARBONYLAMINO-2-OX- O-2H-PYRIMIDIN-1-YL)-[1,3]DI- OXOLAN-2-YLMETHYL ESTER HEXYL ESTER]",86
27,"COc1ccc(C(OC[C@H]2OC[C@@H](n3ccc(N)nc3=O)O2)(c2ccccc2)c2ccc(OC)cc2)cc1 [Compound 123, 4-AMINO-1-{2-[BIS-(4-METH- OXY-PHENYL)-PHENYL-METH- OXYMETHYL]-[1,3]DI- OXOLAN-4-YL)-1H-PYRI- MIDIN-2-ONE]",17

# Same assay, conditions: ratio of IC50 CEM/dCK- to IC50 CCRF-CEM, 24 h exposure; bis trifluoroacetate salt
row,Compound,Factor (Resistance Factor = Ratio of dCK- on Wild-type CCRF-CEM)
1,"Nc1ccn([C@@H]2CO[C@H](COC(=O)CCCCCNCc3ccccc3)O2)c(=O)n1 [Compound 83, 6-Benzylamino-hexanoic acid 4-(4-amino-2-oxo-2H-pyri-midin-1-yl)-[1,3]di-oxolan-2-yl-methyl ester bis trifluoroacetate salt]","4,545"
